The values that follow are results of earlier work, collected in patent publication US20170105937A1, “OLAPARIB CO-PRECIPITATE AND PREPARATION METHOD THEREOF” (CADILA HEALTHCARE LIMITED, priority 2015, published 2017).

The conditions of this series: poor solubility and moderate permeability.

On to `O=C(c1cc(Cc2n[nH]c(=O)c3ccccc23)ccc1F)N1CCN(C(=O)C2CC2)CC1` [Olaparib, 4-[3-(4-cyclopropanecarbonyl-piperazine-1-carbonyl)-4-fluoro-benzyl]-2H-phthalazin-1-one], for which the “Biopharmaceutics Classification System (BCS) class” value was “class 4”.
